{"source": "patent US20230099696A1", "about": "“NANO-COMPOSITE MICROPARTICLES OF POLYMYXIN” (Purdue Research Foundation, priority 2020, published 2023)", "key": {"[1]": {"experiment": "Crystallinity by powder X-ray diffraction (PXRD)", "type": "physicochemical", "details": "state of Iva, FIG. 1B, 3A, 3B", "experimental": "Crystalline state of the optimal Iva-BSA-NPs and the physical mixture (PM) of BSA and Iva were characterized by the powder X-ray diffraction (PXRD, SmartLabTM diffractometer, Rigaku Americas, Austin, USA) with Cu-Kα radiation source, operating at 40 kV and 44 mA . The scanning 2θ range was set as 5 to 60° with a scanning rate of 5°/min ([…] et al., 2018a). Crystalline state of co-delivery microparticles and the PM of BSA, Iva, Col and L-leucine were characterized by PXRD with the similar method as to detect the optimal nanoparticles."}, "[2]": {"system": "Pseudomonas aeruginosa (PA)", "details": "when combined with polymyxin B; cited from earlier work"}, "[3]": {"system": "Staphylococcus aureus (SA)", "details": "against SA; cited from earlier work"}}}
{"smiles": "CC(C)(C)c1cc(C(C)(C)C)c(NC(=O)c2c[nH]c3ccccc3c2=O)cc1O", "note": "[Iva, Ivacaftor]", "values": [{"measurement": "crystalline state (PXRD)", "setting": "[1]", "result": "crystalline"}, {"measurement": "antimicrobial activity against PA", "setting": "[2]", "result": "significant antimicrobial activity"}, {"measurement": "MIC", "setting": "[3]", "result": "8~32 mg/L"}]}
